In US20080182899A1, “ASSOCIATION OF BETA3 RECEPTOR AGONIST AND MONOAMINE REUPTAKE INHIBITORS, PHARMACEUTICAL COMPOSITION AND THERAPEUTIC USE THEREOF” (SANOFI-AVENTIS, priority 2005, published 2008):

Tested on: mice stressed by MCS
Assay: forced swimming test after moderate chronic stress (MCS) protocol
Format: in vivo, mice (male BALB/c ByJIco)
Conditions: β3 agonist 1 mg/kg; for Percentage of time (immobile time of stressed animals relative to the unstressed animals): forced swimming test on day 50, 1 intraperitoneal injection per day from day 15 to day 50, fluoxetine hydrochloride 3 mg/kg; for Immobile time: forced swimming test on day 50, measured over 5 minutes, 1 intraperitoneal injection per day from day 15 to day 50, fluoxetine hydrochloride 3 mg/kg; for effect of repeated administration on immobile time (in words): forced swimming test on day 50, repeated intraperitoneal administration day 15 to day 50, fluoxetine 3 mg/kg
Procedure: The antidepressant effects of the combination according to the invention were evaluated in mice using the moderate chronic stress (MCS) protocol. This test was developed on rats by Willner (P. Willner, Neuroscience and Biobehavioral Review, 1992, 16, 525-34) and adapted to mice by Kopp et al. (C. Kopp, Behavioral Pharmacology, 1999, 10, 73-83).
Similarities between the depressive state in man and the effect of moderate chronic stress in mice were established. The emotivity of mice stressed by MCS was evaluated in the forced swimming test.
The MCS is performed in the following manner:
Male BALB/c ByJIco mice (Iffa Credo Lyons, France) 8 weeks old are placed in individual experiment cages (26×20×14 cm), provided with food and water ad libitum, at a controlled temperature of 22±1° C.
In the context of the protocol, the mice are subjected to a series of stresses such as forced bathing, food and/or water deprivation, housing in cages containing wet sawdust, permutation of the day/night cycle, maintenance under constant illumination or in darkness, each of these restrictions possibly lasting from 2 hours to 24 hours.
A first group of control animals is not subjected to the MCS (group 1—unstressed).
The animals subjected to the MCS are divided into 4 groups on day 15: • Group 2 (saline stress) consists of control animals receiving one intraperitoneal injection per day of physiological fluid. • Group 3 (fluoxetine stress) receives 1 intraperitoneal injection per day of fluoxetine hydrochloride at a rate of 3 mg/kg. • Group 4 (β3 agonist stress) receives 1 intraperitoneal injection per day of ethyl [(7S)-7(2R)-2-(3-chlorophenyl)-2-hydroxyethylamino-5,6,7,8-tetrahydronaphthalen-2-yloxy]acetate hydrochloride at a rate of 1 mg/kg. • Group 5 (fluoxetine+β3 agonist stress) receives 1 intraperitoneal injection per day of a solution containing fluoxetine hydrochloride (3 mg/kg) and ethyl [(7S)-7(2R)-2-(3-chlorophenyl)-2-hydroxyethylamino-5,6,7,8-tetrahydro-naphthalen-2-yloxy]acetate hydrochloride (1 mg/kg).
The injections are performed from day 15 to day 50.
On day 50, each group is subjected to the forced swimming test. […] The immobile time is measured over a period of 5 minutes.

SMILES	Percentage of time (immobile time of stressed animals relative to the unstressed animals)	Immobile time [s]	effect of repeated administration on immobile time (in words)
CNCCC(Oc1ccc(C(F)(F)F)cc1)c1ccccc1 (stereo not drawn) [fluoxetine]	+21.5%	178.4	does not significantly modify this parameter
CCOC(=O)COc1ccc2c(c1)C[C@@H](NC[C@H](O)c1cccc(Cl)c1)CC2.Cl [β3 agonist, ethyl [(7S)-7(2R)-2-(3-chlorophenyl)-2-hydroxyethylamino-5,6,7,8-tetrahydronaphthalen-2-yloxy]acetate hydrochloride]	+25.1%	182.0	does not significantly modify this parameter
